{
  "source": "the supplement of paper PMC9663587",
  "key": {"[1]": {"compound": "CN1CC[C@H](c2c(O)cc(O)c3c(=O)cc(-c4ccccc4Cl)oc23)[C@H](O)C1 [Flavopiridol]", "test": "increase in dead-cell fraction, 72 h; higher = more death;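 note: breast cancer cell lines in 384-well plates, stained with Hoechst plus LIVE/DEAD far red dye and imaged, cells above an LDR intensity threshold counted dead, Hoechst-negative corpses included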"}, "[2]": {"compound": "CCc1cnn2c(NCc3ccc[n+]([O-])c3)cc(N3CCCC[C@H]3CCO)nc12", "test": "increase in dead-cell fraction, 72 h; higher = more death"}, "[3]": {"compound": "CCN1CCN(Cc2ccc(Nc3ncc(F)c(-c4cc(F)c5nc(C)n(C(C)C)c5c4)n3)nc2)CC1", "test": "increase in dead-cell fraction, 72 h; higher = more death"}, "[4]": {"compound": "CC(=O)c1c(C)c2cnc(Nc3ccc(N4CCN(CCOCCOCCOCCNC(=O)COc5cccc6c5C(=O)N(C5CCC(=O)NC5=O)C6=O)CC4)cn3)nc2n(C2CCCC2)c1=O [BSJ-03-123]", "test": "increase in dead-cell fraction, 72 h; higher = more death"}, "[5]": {"compound": "CN(C)C/C=C/C(=O)Nc1ccc(C(=O)Nc2cccc(Nc3ncc(Cl)c(-c4c[nH]c5ccccc45)n3)c2)cc1 [THZ1]", "test": "increase in dead-cell fraction, 72 h; higher = more death"}, "[6]": {"compound": "CC(=O)c1c(C)c2cnc(Nc3ccc(N4CCNCC4)cn3)nc2n(C2CCCC2)c1=O", "test": "increase in dead-cell fraction, 72 h; higher = more death"}, "[7]": {"compound": "CN(C)C(=O)c1cc2cnc(Nc3ccc(N4CCNCC4)cn3)nc2n1C1CCCC1 [LEE011/Ribociclib]", "test": "increase in dead-cell fraction, 72 h; higher = more death"}, "[8]": {"compound": "CCOc1cc2ncc(C#N)c(Nc3ccc(OCc4ccccn4)c(Cl)c3)c2cc1NC(=O)/C=C/CN(C)C [Neratinib/HKI272]", "test": "increase in dead-cell fraction, 72 h; higher = more death"}, "[9]": {"compound": "C[C@@H]1COCCN1c1cc(C2([S@](C)(=N)=O)CC2)nc(-c2cc[nH]c3nccc2-3)n1 [AZD6738]"}, "[10]": {"compound": "O=C1NC(=O)[C@@H](c2cn3c4c(cccc24)CCC3)[C@@H]1c1c[nH]c2ccccc12 [Tivantinib/ARQ197]"}, "[11]": {"compound": "CCC1=CN=CN=C1N2CCN(CC2)CC3=NC4=C(N3)C=C(C=C4)C(F)(F)F"}, "[12]": {"compound": "CNC(=O)c1cccc(-c2ccc3c(N4CCOC[C@@H]4C)nc(N4CCOC[C@@H]4C)nc3n2)c1 [AZD2014]"}, "[13]": {"compound": "O=C(CCCCCCC(=O)Nc1ccccc1)NO [Vorinostat]"}, "[14]": {"compound": "CC(C)NC[C@@H](C(=O)N1CCN(c2ncnc3c2[C@H](C)C[C@H]3O)CC1)c1ccc(Cl)cc1 [Ipatasertib/GDC0068]"}, "[15]": {"compound": "CCN1CCN(Cc2ccc(Nc3ncc(F)c(-c4cc(F)c5nc(C)n(C(C)C)c5c4)n3)nc2)CC1"}, "[16]": {"compound": "CC(=O)Nc1cccc(-n2c(=O)n(C3CC3)c(=O)c3c(Nc4ccc(I)cc4F)n(C)c(=O)c(C)c32)c1"}, "[17]": {"compound": "COc1ccc2c(c1)[C@]1(C[C@H]1c1ccc3c(/C=C/c4ccc(CN5C[C@@H](C)O[C@@H](C)C5)cc4)n[nH]c3c1)C(=O)N2"}, "[18]": {"compound": "NC(=O)Nc1cc(-c2cccc(F)c2)sc1C(=O)N[C@H]1CCCNC1 [AZD7762]"}, "[19]": {"compound": "CN(C)C/C=C/C(=O)Nc1ccc(O[C@@H]2CCC[C@@H](Nc3ncc(Cl)c(-c4c[nH]c5ccccc45)n3)C2)cc1 [BSJ-01-175]"}},
  "data": [
    {"cell line": "SUM44PE", "values": [
      {"measurement": "increase in dead-cell fraction", "setting": "[1]; 0.0001 µM", "result": -0.0156},
      {"measurement": "increase in dead-cell fraction", "setting": "[1]; 0.0003162 µM", "result": -0.0093},
      {"measurement": "increase in dead-cell fraction", "setting": "[1]; 0.001 µM", "result": -0.0478},
      {"measurement": "increase in dead-cell fraction", "setting": "[1]; 0.003162 µM", "result": -0.0522},
      {"measurement": "increase in dead-cell fraction", "setting": "[1]; 0.01 µM", "result": 0.0491},
      {"measurement": "increase in dead-cell fraction", "setting": "[1]; 0.03162 µM", "result": 0.0151},
      {"measurement": "increase in dead-cell fraction", "setting": "[1]; 0.1 µM", "result": 0.263},
      {"measurement": "increase in dead-cell fraction", "setting": "[1]; 0.3162 µM", "result": 0.457},
      {"measurement": "increase in dead-cell fraction", "setting": "[2]; 0.0001 µM", "result": 0.0041},
      {"measurement": "increase in dead-cell fraction", "setting": "[2]; 0.0003162 µM", "result": -0.0148},
      {"measurement": "increase in dead-cell fraction", "setting": "[2]; 0.001 µM", "result": 0.0007},
      {"measurement": "increase in dead-cell fraction", "setting": "[2]; 0.003162 µM", "result": -0.0141},
      {"measurement": "increase in dead-cell fraction", "setting": "[2]; 0.01 µM", "result": 0.102},
      {"measurement": "increase in dead-cell fraction", "setting": "[2]; 0.03162 µM", "result": 0.894},
      {"measurement": "increase in dead-cell fraction", "setting": "[3]; 0.001 µM", "result": 0.0036},
      {"measurement": "increase in dead-cell fraction", "setting": "[3]; 0.003162 µM", "result": -0.0095},
      {"measurement": "increase in dead-cell fraction", "setting": "[3]; 0.01 µM", "result": 0.0221},
      {"measurement": "increase in dead-cell fraction", "setting": "[3]; 0.03162 µM", "result": 0.0221},
      {"measurement": "increase in dead-cell fraction", "setting": "[3]; 0.1 µM", "result": -0.017},
      {"measurement": "increase in dead-cell fraction", "setting": "[3]; 0.3162 µM", "result": 0.0843},
      {"measurement": "increase in dead-cell fraction", "setting": "[3]; 1 µM", "result": 0.0751},
      {"measurement": "increase in dead-cell fraction", "setting": "[3]; 3.162 µM", "result": 0.0328},
      {"measurement": "increase in dead-cell fraction", "setting": "[3]; 10 µM", "result": 0.697},
      {"measurement": "increase in dead-cell fraction", "setting": "[4]; 0.001 µM", "result": 0.0021},
      {"measurement": "increase in dead-cell fraction", "setting": "[4]; 0.003162 µM", "result": 0.0071},
      {"measurement": "increase in dead-cell fraction", "setting": "[4]; 0.01 µM", "result": 0.0014},
      {"measurement": "increase in dead-cell fraction", "setting": "[4]; 0.03162 µM", "result": 0.0121},
      {"measurement": "increase in dead-cell fraction", "setting": "[4]; 0.1 µM", "result": 0.0265},
      {"measurement": "increase in dead-cell fraction", "setting": "[4]; 0.3162 µM", "result": 0.0126},
      {"measurement": "increase in dead-cell fraction", "setting": "[4]; 1 µM", "result": 0.0666},
      {"measurement": "increase in dead-cell fraction", "setting": "[4]; 3.162 µM", "result": 0.115},
      {"measurement": "increase in dead-cell fraction", "setting": "[5]; 0.0001 µM", "result": 0.0181},
      {"measurement": "increase in dead-cell fraction", "setting": "[5]; 0.0003162 µM", "result": -0.0186},
      {"measurement": "increase in dead-cell fraction", "setting": "[5]; 0.001 µM", "result": 0.0262},
      {"measurement": "increase in dead-cell fraction", "setting": "[5]; 0.003162 µM", "result": -0.0493},
      {"measurement": "increase in dead-cell fraction", "setting": "[5]; 0.01 µM", "result": 0.0625},
      {"measurement": "increase in dead-cell fraction", "setting": "[5]; 1 µM", "result": 0.0767},
      {"measurement": "increase in dead-cell fraction", "setting": "[6]; 0.0003162 µM", "result": -0.0301},
      {"measurement": "increase in dead-cell fraction", "setting": "[6]; 0.001 µM", "result": 0.0185},
      {"measurement": "increase in dead-cell fraction", "setting": "[6]; 0.003162 µM", "result": 0.0057},
      {"measurement": "increase in dead-cell fraction", "setting": "[6]; 0.01 µM", "result": -0.0159},
      {"measurement": "increase in dead-cell fraction", "setting": "[6]; 0.03162 µM", "result": 0.0328},
      {"measurement": "increase in dead-cell fraction", "setting": "[6]; 0.1 µM", "result": 0.0351},
      {"measurement": "increase in dead-cell fraction", "setting": "[6]; 0.3162 µM", "result": 0.0647},
      {"measurement": "increase in dead-cell fraction", "setting": "[6]; 1 µM", "result": -0.0062},
      {"measurement": "increase in dead-cell fraction", "setting": "[6]; 3.162 µM", "result": 0.0016},
      {"measurement": "increase in dead-cell fraction", "setting": "[7]; 0.001 µM", "result": 0.0007},
      {"measurement": "increase in dead-cell fraction", "setting": "[7]; 0.003162 µM", "result": -0.0447},
      {"measurement": "increase in dead-cell fraction", "setting": "[7]; 0.01 µM", "result": 0.0327},
      {"measurement": "increase in dead-cell fraction", "setting": "[7]; 0.03162 µM", "result": -0.0402},
      {"measurement": "increase in dead-cell fraction", "setting": "[7]; 0.1 µM", "result": 0.0001},
      {"measurement": "increase in dead-cell fraction", "setting": "[7]; 0.3162 µM", "result": -0.0342},
      {"measurement": "increase in dead-cell fraction", "setting": "[7]; 1 µM", "result": 0.0417},
      {"measurement": "increase in dead-cell fraction", "setting": "[7]; 3.162 µM", "result": -0.0186},
      {"measurement": "increase in dead-cell fraction", "setting": "[7]; 10 µM", "result": -0.0286},
      {"measurement": "increase in dead-cell fraction", "setting": "[8]; 0.0003162 µM", "result": -0.0158},
      {"measurement": "increase in dead-cell fraction", "setting": "[8]; 0.001 µM", "result": -0.0227},
      {"measurement": "increase in dead-cell fraction", "setting": "[8]; 0.003162 µM", "result": -0.0156},
      {"measurement": "increase in dead-cell fraction", "setting": "[8]; 0.01 µM", "result": 0.029},
      {"measurement": "increase in dead-cell fraction", "setting": "[8]; 0.03162 µM", "result": 0.0991},
      {"measurement": "increase in dead-cell fraction", "setting": "[8]; 0.1 µM", "result": 0.118},
      {"measurement": "increase in dead-cell fraction", "setting": "[8]; 0.3162 µM", "result": 0.137},
      {"measurement": "increase in dead-cell fraction", "setting": "[8]; 1 µM", "result": 0.22},
      {"measurement": "increase in dead-cell fraction", "setting": "[8]; 3.162 µM", "result": 0.358},
      {"measurement": "GR50, 72 h", "setting": "[9]", "result": 0.549, "unit": "µM"},
      {"measurement": "GR50, 72 h", "setting": "[10]", "result": 0.0449, "unit": "µM"},
      {"measurement": "GR50, 72 h", "setting": "[11]", "result": 6.53, "unit": "µM"},
      {"measurement": "GR50, 72 h", "setting": "[12]", "result": 0.00197, "unit": "µM"},
      {"measurement": "GR50, 72 h", "setting": "[13]", "result": 1.86, "unit": "µM"},
      {"measurement": "GR50, 72 h", "setting": "[14]", "result": 0.27, "unit": "µM"},
      {"measurement": "GR50, 72 h", "setting": "[15]", "result": 0.0473, "unit": "µM"},
      {"measurement": "GR50, 72 h", "setting": "[16]", "result": "> 1", "unit": "µM"},
      {"measurement": "GR50, 72 h", "setting": "[17]", "result": 0.000792, "unit": "µM"},
      {"measurement": "GR50, 72 h", "setting": "[18]", "result": 0.0479, "unit": "µM"},
      {"measurement": "GR50, 72 h", "setting": "[19]", "result": 0.0082, "unit": "µM"}
    ]}
  ]
}
